Experimental data reported in patent US7795225B2, “Anti-chrondrosarcoma compounds” (priority 2003, dated 2010).
“Also recorded” adds a separate entry of the source. Where no end group is shown, it is not given here.

Experiments:
MMP-9 = target: T1, MMP-9 (Homo sapiens, UniProt P14780); assay: Fluoresceinated collagen hydrolysis assay (fluorescein release); assay type: biochemical; details: extended time assay, FIG. 8
T1 construct: Active MMP-9 enzyme was purchased from Calbiochem; purchased Calbiochem
Description: Two enzymatic assays were performed. The first assay measured the enzymatic hydrolysis of fluoresceinated collagen by MMP-9 as a function of time. […] The protein mixture was added to the collagen substrate, and was quickly mixed. Fluorescence emission intensity at 520 nm was measured as a function of time (excitation wavelength 495 nm) in a Shimadzu RF5301 fluorimeter (Lakowicz, 1983). The fluorescein release assay was used to determine the inhibitory constant (Ki) of the peptide inhibitor ([I]) according to Segel (1993) via the use of Dixon plots (1/v vs. [I]), such that: slope=Km /(V max Ki [S]) (1) where Km is the Michaelis constant, Vmax is the reaction maximum velocity, and [S] is the substrate concentration.

pro-MMP-9 = pro-MMP-9 (Homo sapiens, UniProt P14780); assay: Anti-activation (anti-splicing) assay: conversion of pro-MMP-9 by stromilysin, HPLC; assay type: biochemical; details: 0.5 and 1.0 μM peptide, FIG. 12
Description: The assay measured how much proenzyme was converted into mature matrix metalloproteinase. Proenzyme pro-MMP-9 (100 μg) was mixed with 0.5 μg of stromilysin in PBS. The reaction was incubated at 35° C. Aliquots were removed from the reaction over an 80 minute time course. […] The zero (injection) time point was a single peak that elutes from the column in approximately 750 seconds. This peak reduced in size as a function of time, and two new peaks appeared. The first peak eluted at approximately 800 seconds, and represented the mature form of MMP-9. The second peak eluted at approximately 1100 seconds, and corresponded to the N-terminal pro-domain fragment. Peak areas were determined by integrating over the elution profile, and the percent area changes were plotted.
The first peak, eluting at approximately 700 seconds, is pro-MMP-9. As the splicing reaction proceeds, this peak decreases in intensity (as marked with the downwards arrow), and two new peaks appear. The first new peak, eluting at approximately 800 seconds, is mature and active MMP-9. The second new peak, eluting at approximately 1050 seconds, is the prodomain. As the splicing reaction proceeds, the intensity of these two peaks increases (as marked with the upwards arrows). When the reaction is complete, there is no detectable pro-MMP-9 remaining.

C57BL6/KsJ db/db mice = assay: Wound healing in db/db diabetic mice; assay type: in vivo; details: single dose 5 μL of 20 μg/mL at day zero, saline control 14 days
Source text: Wounds were created in C57BL6/KsJ db/db mice with a 4 mm biopsy punch. The mice were obtained from The Jackson Laboratories and were aged 3-7 months before the onset of the wounding protocol. All mice were anesthetized prior to wounding. Two wounds were introduced onto the upper back of each animal by pulling the skin away from underlying structures and pushing the punch through the isolated skin. Typically, wounds were created to an average depth of 1.7 mm, with a range of 1.3 to 2.2 mm. No muscle involvement occurred during the course of wounding.
Each day the wounds were digitally photographed and wound areas were determined by computer integration of the photographs. All wound treatments and the subsequent data analyses were performed in a blind manner (see e.g., Brown et al., 1994). Wound area at the time of wounding (day 0) was arbitrarily set to a relative value of 1 for all wounds; such that subsequent wound areas were converted to relative wound areas by dividing the wound area at day n by the wound area at day zero.

[1] = test system: Human chondrosarcoma cells (SW1351); assay: Chondrosarcoma cell proliferation (CellTiter 96 Aqueous One, absorbance 490 nm); assay type: cell-based
Description: Human chondrosarcoma cells (SW1351) were purchased from the American Type Culture Collection (ATCC No. HTB-94). A frozen vial of cells was thawed by gentle agitation in a 37° C. water bath for about 2 minutes. The vial was decontaminated with 70% ethanol and the cells were transferred to a T75 flask containing pre-wanned Leibovitz's L-15 medium (ATCC Catalog No. 30-2008) with 10% fetal bovine serum. The culture as incubated at 37° C. until 80% confluence. The culture medium was removed and the cells were dissociated from the T75 flask using 3 ml 0.25% trypsin, 0.03 mM EDTA at 37° C. After incubation for 5 minutes, 8 ml culture medium was added to stop trypsinization. The cells were counted with trypan blue and then seeded in 96 well plates at a density of about 2500 cells/well.
Six separate cell cultures were tested at each concentration of each peptide (n=6). Control cells received culture medium only.
Cell cultures were then incubated at 37° C. in an atmosphere of 5% CO2. Cell proliferation was determined after 18 or 72 hr by using the CellTiter 96 Aqueous One Solution purchased from Promega (Catalog No. TB245). Briefly, the CellTiter solution was warmed up to room temperature. Twenty microliters of the solution was added to each well. Cells were incubated at 37° C. for 1-2 hours. The absorbance at 490 nm was then recorded using a 96 well plate reader. The data were statistically analyzed using a Student T test. Differences were considered significant at the level of p<0.05.

T1 sequence (P14780 107-707 limits assumed): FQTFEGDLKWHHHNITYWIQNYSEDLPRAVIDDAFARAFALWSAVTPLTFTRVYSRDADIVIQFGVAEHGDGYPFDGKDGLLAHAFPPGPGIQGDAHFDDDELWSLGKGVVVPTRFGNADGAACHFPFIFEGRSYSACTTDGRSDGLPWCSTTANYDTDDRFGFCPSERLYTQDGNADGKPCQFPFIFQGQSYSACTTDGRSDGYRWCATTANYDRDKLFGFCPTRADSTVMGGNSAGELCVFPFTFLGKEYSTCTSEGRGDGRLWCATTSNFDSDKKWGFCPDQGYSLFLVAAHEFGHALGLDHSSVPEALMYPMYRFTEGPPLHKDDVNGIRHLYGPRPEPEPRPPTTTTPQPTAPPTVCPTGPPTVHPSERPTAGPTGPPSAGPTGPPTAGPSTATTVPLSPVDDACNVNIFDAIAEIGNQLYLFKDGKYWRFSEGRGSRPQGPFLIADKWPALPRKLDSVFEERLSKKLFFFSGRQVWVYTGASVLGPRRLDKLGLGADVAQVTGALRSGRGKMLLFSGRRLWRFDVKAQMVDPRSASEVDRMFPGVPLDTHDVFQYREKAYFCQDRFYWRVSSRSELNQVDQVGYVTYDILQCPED
pro-MMP-9, sequence (P14780 20-707): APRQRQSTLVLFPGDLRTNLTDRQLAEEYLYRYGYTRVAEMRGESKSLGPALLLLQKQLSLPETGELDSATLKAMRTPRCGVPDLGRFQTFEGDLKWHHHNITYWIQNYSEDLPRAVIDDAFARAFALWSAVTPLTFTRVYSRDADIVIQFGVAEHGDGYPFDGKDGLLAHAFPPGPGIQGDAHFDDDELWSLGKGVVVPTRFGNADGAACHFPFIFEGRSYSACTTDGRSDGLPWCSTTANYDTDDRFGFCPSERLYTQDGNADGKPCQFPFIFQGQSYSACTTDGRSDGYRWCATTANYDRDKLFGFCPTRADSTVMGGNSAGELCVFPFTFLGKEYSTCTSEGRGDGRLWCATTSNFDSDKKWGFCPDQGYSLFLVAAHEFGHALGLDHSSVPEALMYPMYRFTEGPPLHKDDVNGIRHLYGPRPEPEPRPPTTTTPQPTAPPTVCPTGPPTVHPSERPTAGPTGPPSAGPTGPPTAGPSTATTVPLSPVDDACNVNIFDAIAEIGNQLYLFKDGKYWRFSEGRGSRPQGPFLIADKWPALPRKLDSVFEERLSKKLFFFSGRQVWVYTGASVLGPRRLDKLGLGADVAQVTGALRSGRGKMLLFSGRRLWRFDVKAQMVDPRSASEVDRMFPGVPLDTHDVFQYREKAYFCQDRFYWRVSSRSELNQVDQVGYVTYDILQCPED

| Compound | period of time of effective inhibition of MMP-9 catalyzed hydrolysis of collagen (MMP-9) | inhibition of splicing (conversion of pro-MMP-9 into prodomain and active enzyme) (pro-MMP-9) | time to full wound closure post wounding (C57BL6/KsJ db/db mice) | chondrosarcoma cell proliferation vs untreated cells ([1]; 18 hours, 10^−4 M, p<0.05) | chondrosarcoma cell proliferation vs untreated cells ([1]; 72 hours, 10^−4 M, p<0.05) | chondrosarcoma cell proliferation vs untreated cells ([1]; 18 hr, three concentrations tested (10^−6, 10^−5, 10^−4 M)) | chondrosarcoma cell proliferation vs untreated cells ([1]; 72 hours, 10^−5 M, p<0.05) |
| --- | --- | --- | --- | --- | --- | --- | --- |
| CC(C)[C@H](NC(=O)[C@H](CC(=O)O)NC(=O)[C@@H]1CCCN1C(=O)[C@H](CC(N)=O)NC(=O)CNC(=O)[C@H](CS)NC(=O)[C@H](CCCNC(=N)N)NC(=O)[C@@H]1CCCN1)C(=O)N[C@@H](C)C(=O)N[C@@H](CC(N)=O)C(=O)N[C@@H](Cc1ccc(O)cc1)C(=O)N[C@@H](CC(N)=O)C(=O)N[C@@H](Cc1ccccc1)C(=O)N[C@@H](Cc1ccccc1)C(=O)N1CCC[C@H]1C(=O)N[C@@H](CCCNC(=N)N)C(=O)N[C@@H](CCCCN)C(=O)N1CCC[C@H]1C(=O)N[C@@H](CCCCN)C(=O)O [19-mer] | > 1000 min | inhibited in a dose dependent manner | 9 days | significantly inhibits or depresses growth; also recorded: significantly inhibited | substantially less |  |  |
| NYNFFPRKPK [10-mer] |  |  |  |  | substantially less | did not show any significant effect |  |
| PRCGNPDVA [9-mer] |  |  |  | significantly inhibits or depresses growth; also recorded: significantly inhibited | substantially less |  | significantly reduced |
